Key:
Type in all cases: in vivo
[1] = test system: Mediterranean fruitfly (Ceratitis capitata); experiment: Action on Mediterranean fruitfly, eggs on insect diet in microtiter plates; details: 120 h, egg and larval mortality visually assessed after 5 days, read-out: mortality in comparison with untreated controls
Procedure, shortened: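 Microtiter plates held insect diet plus 50-80 C. capitata eggs; compounds in 75% water/25% DMSO were sprayed onto the diet at several concentrations, two replicates. Plates were kept at about […] and […] relative humidity for 5 days, then egg and larval mortality was scored visually.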

[2] = test system: tobacco budworm (Heliothis virescens); experiment: Action on tobacco budworm, eggs on insect diet in 96-well microtiter plates; details: 120 h, egg and larval mortality visually assessed after 5 days, read-out: mortality in comparison with untreated controls
Procedure, shortened: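 Compounds in 25% DMSO/water sprayed (10 μl) onto insect diet holding 15–25 H. virescens eggs, two replicates at several concentrations. Held 5 days at about 28±1 °C, 80±5% RH. Egg and larval mortality scored visually.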

[3] = test system: Southern Armyworm (Spodoptera eridania), 2nd instar larvae; experiment: Action on southern armyworm 2nd instar larvae, sprayed lima bean plants; details: 96 h, 4 days after treatment, read-out: mortality in comparison with untreated controls
Procedure, shortened: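 Lima bean plants (Sieva, 1st true leaf) sprayed electrostatically with compound in 50% acetone/water plus 0.01% nonionic surfactant, dried, then infested with 10–11 larvae in bags. Held at about 25 °C, 20–40% RH; mortality and reduced feeding scored 4 days after treatment versus untreated plants.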

[4] = test system: Silverleaf Whitefly (Bemisia argentifolii) (Adults); experiment: Action on silverleaf whitefly adults, sprayed cotton plants; details: 72 h, 3 days after treatment, read-out: mortality in comparison with untreated controls
Procedure, shortened: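 Compounds diluted from cyclohexanone stocks into 50% acetone/water with 0.01% nonionic surfactant and electrostatically sprayed onto cotyledon-stage cotton. Dried plants were infested with 10–12 adults (3–5 days old), held ~25 °C, 20–40% RH for 3 days; mortality scored at day 3 vs untreated plants.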

[5] = test system: boll weevil (Anthonomus grandis); experiment: Action on boll weevil, eggs on insect diet in 96-well microtiter plates; details: 120 h, 800 ppm, egg and larval mortality visually assessed after 5 days, read-out: mortality in comparison with untreated controls
Procedure, shortened: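 Diet in 96-well plates was infested with 5-10 A. grandis eggs and sprayed with compounds formulated in 75% water/25% DMSO, at several concentrations, in two replicates. Plates were held 5 days at about 25±1 °C and 75±5% RH. Egg and larval mortality was then scored visually.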

[6] = test system: Diamond Back Moth (Plutella xylostella); experiment: Action on diamond back moth, dipped cabbage leaves; details: 3rd instar larvae, 72 hours after treatment, read-out: mortality in comparison with untreated controls
Procedure, shortened: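 Cabbage leaves dipped in compound in 1:1 water:acetone with 0.01% (vol/vol) surfactant, air-dried, placed on moist filter paper and infested with ten 3rd-instar larvae. Mortality scored 72 hours after treatment; feeding damage rated on a 0-100% scale.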

[7] = test system: Orchid Thrips (Dichromothrips corbetti); experiment: Action on orchid thrips, floral-immersion technique; details: adult thrips, 72 hours after treatment, read-out: mortality in comparison with untreated controls
Procedure, shortened: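 Lab-colony adult thrips, about 20 per arena, were exposed to whole orchid flower petals dipped in compound diluted in 1:1 acetone:water with 0.01% v/v Kinetic HV and then dried. Arenas were held under continuous light at about 28 °C. Live thrips were counted after 3 days and percent mortality recorded at 72 h post-treatment.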

Cc1ccc(C(C)C)c(N2C(=O)CS/C2=N\N=C\c2ccc3c(ccc4c3ncn4-c3ccc(OC(F)(F)F)cc3)n2)c1 [Compound C-6, (2Z)-3-(2-isopropyl-5-methyl-phenyl)-2-[(E)-[3-[4-(trifluoromethoxy)phenyl]imidazo[4,5-f]quinolin-7-yl]methylenehydrazono]thiazolidin-4-one]
≥ 75%: mortality at 800 ppm [1] | mortality at 800 ppm [2] | mortality at 500 ppm [3] | mortality at 500 ppm [4] | mortality at 800 ppm [5] | mortality at 500 ppm [6] | mortality at 500 ppm [7]

Reference: patent US10106558B2, “Azolobenzazine compounds, compositions comprising these compounds and their use for controlling invertebrate pests” (BASF SE, priority 2015, dated 2018)
